The values below come from ChEMBL document CHEMBL2346507 (Bioorg Med Chem, 2013).

The nature of data set [1]: Metabolic stability in mouse liver microsomes at 1 umol/L. As to conditions: read-out: Stability. Type of data set: ADME, Microsome. (In general: Liver microsomes are a subcellular fraction often used to study metabolism.)
Data set [2] in a line: Metabolic stability in human liver microsomes at 1 umol/L. The data set is classed as ADME, Microsome. As to conditions: read-out: Stability.
Data set [3] can be described thus: Lipophilicity, log D of the compound at pH 7.4. The data set is classed as physicochemical. As to conditions: buffer.
Data set [4] in a line: Thermodynamic solubility of the compound in Japanese pharmacopoeia disintegration solution 2 containing bile acid at pH 6.8 after 18 hrs by HPLC analysis. The data set is classed as physicochemical. As to conditions: read-out: Therm_solubility.
The nature of data set [5]: Oral bioavailability in cynomolgus monkey at 0.5 mg/kg. The conditions noted are these: in vivo. Type of data set: ADME, organism-based, Macaca fascicularis.
A short description of data set [6]: Volume of distribution at steady state in cynomolgus monkey at […], iv. The data set is classed as ADME, organism-based, Macaca fascicularis. Set-up: dose 0.25 mg/kg, route intravenous. As to conditions: in vivo, read-out: Vdss.
Data set [7] is described as follows: Mean residence time in Crl:CD (SD) albino rat at 0.5 mg/kg, po. The conditions noted are these: in vivo. Type of data set: ADME, organism-based. The arrangement: dose 0.5 mg/kg, route oral.
Data set [8] is described as follows: Tmax in cynomolgus monkey at 0.5 mg/kg, po. The conditions noted are these: in vivo. The arrangement: dose 0.5 mg/kg, route oral. Type of data set: ADME, organism-based, Macaca fascicularis.
The nature of data set [9]: Total plasma clearance in cynomolgus monkey at […], iv. The data set is classed as ADME, organism-based, Macaca fascicularis. Set-up: dose 0.25 mg/kg, route intravenous.
Data set [10] in a line: Cmax in cynomolgus monkey at 0.5 mg/kg, po. As to conditions: in vivo. The arrangement: dose 0.5 mg/kg, route oral. The data set is classed as ADME, organism-based, Macaca fascicularis.
Data set [11] is described as follows: Mean residence time in cynomolgus monkey at 0.5 mg/kg, po. The data set is classed as ADME, organism-based, Macaca fascicularis. The arrangement: dose 0.5 mg/kg, route oral. The conditions noted are these: in vivo.
Data set [12] in a line: AUC (0 to 48 hrs) in cynomolgus monkey at […], iv. The data set is classed as ADME, organism-based, Macaca fascicularis. The arrangement: time < 48 hr, dose 0.25 mg/kg, route intravenous. As to conditions: plasma.
The nature of data set [13]: Cmax in Crl:CD (SD) albino rat at 0.5 mg/kg, po. Set-up: dose 0.5 mg/kg, route oral. The data set is classed as ADME, organism-based. As to conditions: in vivo.
Data set [14] in a line: Volume of distribution at steady state in Crl:CD (SD) albino rat at […], iv. Type of data set: ADME, organism-based. The arrangement: dose 0.25 mg/kg, route intravenous. The conditions noted are these: in vivo, read-out: Vdss.
Data set [15] is described as follows: Oral bioavailability in Crl:CD (SD) albino rat at 0.5 mg/kg. The data set is classed as ADME, organism-based. The conditions noted are these: in vivo.
The nature of data set [16]: AUC (0 to 24 hrs) in Crl:CD (SD) albino rat at 0.5 mg/kg, po. The data set is classed as ADME, organism-based. The arrangement: time < 24 hr, dose 0.5 mg/kg, route oral. As to conditions: plasma.
Data set [17] in a line: Plasma concentration in athymic BALB/cAcl-nu/nu mouse xenografted with human A549 cells at 1 mg/kg, po measured at 8 hrs by LC/MS/MS analysis. Type of data set: ADME, organism-based. The arrangement: dose 1 mg/kg, route oral. (In general: A xenograft is tissue or cells of one species grown in another, often human tumour cells in immunodeficient mice.)
Data set [18] is described as follows: Plasma concentration in athymic BALB/cAcl-nu/nu mouse xenografted with human A549 cells at 1 mg/kg, po measured at 1 hr by LC/MS/MS analysis. Type of data set: ADME, organism-based. Set-up: dose 1 mg/kg, route oral.
Data set [19] is described as follows: AUC (0 to 24 hrs) in Crl:CD (SD) albino rat at […], iv. The conditions noted are these: plasma. The arrangement: time < 24 hr, dose 0.25 mg/kg, route intravenous. The data set is classed as ADME, organism-based.
Data set [20] can be described thus: Drug uptake in athymic BALB/cAcl-nu/nu mouse lung xenografted with human A549 cells at 1 mg/kg, po measured at 1 hr by LC/MS/MS analysis. The conditions noted are these: read-out: Drug uptake. The data set is classed as ADME, organism-based. The arrangement: dose 1 mg/kg, route oral.
Data set [21] is described as follows: Drug uptake in athymic BALB/cAcl-nu/nu mouse lung xenografted with human A549 cells at 1 mg/kg, po measured at 8 hrs by LC/MS/MS analysis. Type of data set: ADME, organism-based. Set-up: dose 1 mg/kg, route oral. The conditions noted are these: read-out: Drug uptake.
A short description of data set [22]: AUC (0 to 48 hrs) in cynomolgus monkey at 0.5 mg/kg, po. Type of data set: ADME, organism-based, Macaca fascicularis. Set-up: time < 48 hr, dose 0.5 mg/kg, route oral. As to conditions: plasma.
A short description of data set [23]: Tmax in Crl:CD (SD) albino rat at 0.5 mg/kg, po. The data set is classed as ADME, organism-based. Set-up: dose 0.5 mg/kg, route oral. The conditions noted are these: in vivo.
Data set [24] in a line: Total plasma clearance in Crl:CD (SD) albino rat at […], iv. Type of data set: ADME, organism-based. The arrangement: dose 0.25 mg/kg, route intravenous.

As a reminder, the logD is the decadic logarithm of the distribution of all forms, ionised or not, between an organic phase and buffer at a given pH. In general, bioavailability refers to the share of a dose that reaches the circulation, judged against a reference dose that is usually intravenous. Broadly, the MRT is the average time that molecules of a dose stay in the body. As usually defined, the Tmax is the time at which the peak concentration occurs. The clearance is a measure of how efficiently the substance is removed, as volume per time. As usually defined, the Cmax is the highest concentration seen after dosing. Broadly, the AUC(0-t) is exposure summed from dosing to a finite time, without extrapolation to infinity.

The structures appear in SMILES notation. Converted amounts (≈) assume the structure as drawn. Some results are limits rather than exact numbers.

Consider `Cc1cc(C(=O)Nc2cc(Oc3ccc4nc(NC(=O)C5CC5)cn4n3)ccc2F)n(C)n1`, for which the microsomal CLint at 1 µM in data set [1] was determined as 54 µL/min/mg; in data set [2] it was 9 µL/min/mg. The log distribution coefficient (logD) in data set [3] came to 2.21. The solubility thermodynamic at 18 h in data set [4] was determined as 14 µg/mL (≈ 31.1 µM).
The like results for `Cc1cc(C(=O)Nc2cccc(Oc3ccc4nc(NC(=O)C5CC5)cn4n3)c2)n(C)n1` were, in that order, 43 µL/min/mg, 6 µL/min/mg, 2.28 and 3.7 µg/mL (≈ 8.58 µM).
Take `Cc1cc(C(=O)Nc2cc(Oc3ccc4nc(NC(=O)C5CC5)cn4n3)ccc2C)n(C)n1` [TAK-593]: the bioavailability amounted to 57.6% in data set [5] and 19.8% in data set [15]. The Vd in data set [6] was found to be 1.03 L/kg; in data set [14] it was 0.471 L/kg. Further, the MRT in data set [7] was determined as 3.3 h; in data set [11] it was 11 h. Moreover, the time to peak (Tmax) in [8] amounted to 2.8 h; in data set [23], 1.3 h. The figures for the microsomal CLint at 1 µM in data set [1] and in [2] were 31 µL/min/mg and 2 µL/min/mg, respectively. Besides, the results for the clearance in data set [9] and in data set [24] were 3.18 mL/min/kg and 7.3 mL/min/kg, respectively. For the same compound, the peak concentration (Cmax) in data set [10] is 129 ng/mL; in data set [13], 56 ng/mL. Besides, the values for the AUC(0-t) at 48 h in [12] and in [22] were 1310 ng·h/mL and 1510 ng·h/mL, respectively. Besides, the area under the curve AUC(0-t) at 24 h in data set [16] is 226 ng·h/mL; in data set [19] it was 571 ng·h/mL. Also, the concentration at 8 h in [17] was less than 3 ng/mL; in data set [21], less than 15 ng/g. For the same compound, the concentration at 1 h was 451 ng/mL in data set [18] and 242 ng/g in [20]. This compound also showed a log distribution coefficient (logD) in data set [3] of 2.24. The solubility thermodynamic at 18 h in [4] stood at 38 µg/mL (≈ 85.3 µM).
